Each structure is given as a SMILES string. pIC50: −log10 of the molar value.

Experiment [1] deals with T1, lysine methyltransferase SET8 (Homo sapiens, UniProt Q9NQR1).
T1 construct: purchased Cayman Company
T1 sequence (Q9NQR1 1-393): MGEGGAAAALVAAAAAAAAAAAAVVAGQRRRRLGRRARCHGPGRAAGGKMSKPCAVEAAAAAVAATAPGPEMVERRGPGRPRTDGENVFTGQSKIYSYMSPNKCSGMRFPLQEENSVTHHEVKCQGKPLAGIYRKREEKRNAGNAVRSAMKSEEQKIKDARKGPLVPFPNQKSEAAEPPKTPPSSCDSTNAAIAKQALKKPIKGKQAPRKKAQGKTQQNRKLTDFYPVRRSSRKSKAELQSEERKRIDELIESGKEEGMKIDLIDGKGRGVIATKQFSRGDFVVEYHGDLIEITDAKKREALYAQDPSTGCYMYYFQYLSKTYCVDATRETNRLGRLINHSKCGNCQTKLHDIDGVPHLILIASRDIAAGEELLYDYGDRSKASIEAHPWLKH
Description: SET8 methyltransferase inhibitor screening assay kit (Cayman), fluorescence. The settings on record: incubation at 37° C. for 10 min; inhibitor concentration not given. The class given is biochemical. As for the experimental part: The steps of activity detection are completely based on the SET8 methyltransferase inhibitor screening assay kit of Cayman Company. In short, reagents in the kit are added to the 96-well plate to be tested according to the Table A below.
Then 10 μL of SET8 albumen protein is added to each well, and the reaction begins. After incubation at 37° C. for 10 min, the fluorescence intensity (A) value is measured at the excitation wavelength of 535 nm and the […] of 590 nm. the inhibition rate of the compound is calculated according to the following formula: Inhibition rate %=(Anormal−Asample)/)Normal*100%, and the inhibition rate of each inhibitor on lysine methyltransferase is shown in Table 1.

A further experiment deals with glioma cell line SH-SY5Y. Briefly: CCK-8 cell proliferation inhibition test, SH-SY5Y. The class given is cell-based. As to conditions: Homo sapiens, 48 h; for inhibition at 100 µM: read-out: IC % for 100 μM; for pIC50: CCK-8. As for the experimental part: (§1) 1. Experimental Method: […] cell line SH-SY5Y, colorectal cancer cell line SW480 and liver cancer cell line HepG2 are respectively cultured in an RPMI-1640 medium containing 10% calf serum at 37° C. in a 5% CO2 incubator. The […] method is adopted for cell proliferation inhibition test, and the main operation is as follows: taking the tumor cell line in the logarithmic phase, digesting with 0.25% trypsin, preparing an RPMI-1640 medium containing 10% newborn calf serum into a cell suspension of 6×10^4 cells/mL, and inoculating the cell suspension into a 96-well plate, with 100 μL per well. Culturing at 37° C. and 5% CO2 saturated humidity for 12 h. After adherence, absorbing the culture supernatants in the wells, and adding the sample solution prepared from the RPMI-1640 medium containing 1% calf serum to each well so that the final concentrations of the samples are 100 μM, 30 μM, 10 μM, 3 μM, 1 μM, and 0.3 μM respectively. With 3 wells in parallel for each concentration, continuing culturing for 48 h, then adding 10 μL of CCK-8 solution (Dalian Meilun, MA0218) to each well, and continuing incubating at 37° C. and 5% CO2 for 4 h. Selecting 470 nm on the enzyme-linked immunosorbent assay apparatus to measure the light absorption value of each well, and setting a blank group (only adding a culture solution containing cells) and a control group (using the culture solution to replace drugs) to calculate the cell proliferation inhibition rate. Inhibition rate (%)=(1−average OD value of 3 wells in experimental group/average OD value of 3 wells in control group)×100%. With the inhibition rate as an ordinate, a regression curve is drawn to calculate the IC50 value of the sample. Graphpad prism 7.0 software are adopted for data processing and statistical analysis by.

Experiment [2] has as its system colorectal cancer cell line SW480. Briefly: CCK-8 cell proliferation inhibition test, SW480. The class given is cell-based. The settings on record: for pIC50: Homo sapiens, SW480, 48 h, CCK-8; for IC % for 100 μM: SW480, 100 μM, 48 h; for tumor cell proliferation inhibitory activity (in words): SW480, summary of Table 2. On the procedure:
as §1

The subject of experiment [3] is liver cancer cell line HepG2. Briefly: CCK-8 cell proliferation inhibition test, HepG2. It counts as cell-based. As to conditions: for IC % for 100 μM: HepG2, 100 μM, 48 h; for tumor cell proliferation inhibitory activity (in words): HepG2, summary of Table 2; for pIC50: Homo sapiens, HepG2, 48 h, CCK-8. As for the experimental part: as §1

Regarding `COc1ccc(Cc2nc(C3CNCCO3)n(C3CCN(C)CC3)n2)cc1` (stereo not drawn) [Compound 1, 2-(3-(4-methoxybenzyl)-1-(1-methylpiperidin-4-yl)-1H-1,2,4-triazol-5-yl)morpholine], the “Inhibition Rate (%)” value in experiment [1] was 58.4%. Also, in the experiment on glioma cell line SH-SY5Y, the inhibition at 100 µM was found to be 52.5% and the pIC50 is 4.02.
`COc1ccc(Cc2nc(C3CNCCO3)n(Cc3ccc(OC)cc3)n2)cc1` (stereo not drawn) [Compound 2, 2-(1,3-bis(4-methoxybenzyl)-1H-1,2,4-triazol-5-yl)morpholine]: the “Inhibition Rate (%)” value in experiment [1] is 74.2%. In experiment [2], the pIC50 was 4.79, the “IC % for 100 μM” value amounted to 75.8% and the “tumor cell proliferation inhibitory activity (in words)” value is “good tumor cell proliferation inhibitory activity”. In the experiment with glioma cell line SH-SY5Y, the inhibition at 100 µM was found to be 78.3% and the pIC50 is 4.86. Moreover, in experiment [3], the “IC % for 100 μM” value was determined as 51.5%, the “tumor cell proliferation inhibitory activity (in words)” value is on record as “good tumor cell proliferation inhibitory activity” and the pIC50 is 4.75.
On to `COc1ccc(Cc2nc(C3CNCCO3)n(C3CCCCC3)n2)cc1` (stereo not drawn) [Compound 3, 2-(1-cyclohexyl-3-(4-methoxybenzyl)-1H-1,2,4-triazol-5-yl)morpholine], for which, in experiment [1], the “Inhibition Rate (%)” value is reported as 70.0%. Besides, in experiment [2], the pIC50 is 4.74, the “IC % for 100 μM” value amounted to 73.2% and the “tumor cell proliferation inhibitory activity (in words)” value is “good tumor cell proliferation inhibitory activity”. In addition, in the experiment on glioma cell line SH-SY5Y, the inhibition at 100 µM was 76.5% and the pIC50 is 4.65. Besides, in experiment [3], the “IC % for 100 μM” value is listed as 48.8%, the “tumor cell proliferation inhibitory activity (in words)” value was “good tumor cell proliferation inhibitory activity” and the pIC50 is 4.72.
Regarding `COc1ccc(Cc2nc(C3CNCCO3)n(-c3ccccc3)n2)cc1` (stereo not drawn) [Compound 4, 2-(3-(4-methoxybenzyl)-1-phenyl-1H-1,2,4-triazol-5-yl)morpholine], in experiment [1], the “Inhibition Rate (%)” value was found to be 71.5%. In the experiment with glioma cell line SH-SY5Y, the inhibition at 100 µM is 57.8% and the pIC50 was 4.10.
For `COc1ccc(Cc2nc(C3CNCCO3)n(-c3cccc(C)c3)n2)cc1` (stereo not drawn) [Compound 5, 2-(3-(4-methoxybenzyl)-1-(m-methylphenyl)-1H-1,2,4-triazol-5-yl)morpholine], in that order: 70.2%, 57.1% and 4.09.
Take `COc1ccc(Cc2nc(C3CNCCO3)n(-c3ccccn3)n2)cc1` (stereo not drawn) [Compound 6, 2-(3-(4-methoxybenzyl)-1-(pyridin-2-yl)-1H-1,2,4-triazol-5-yl)morpholine]: the “Inhibition Rate (%)” value in experiment [1] was 70.3%. In addition, in the experiment on glioma cell line SH-SY5Y, the inhibition at 100 µM is 58.6% and the pIC50 is 4.12.
On to `COc1ccc(Cc2nc(C3CNCCO3)n(-c3cnccn3)n2)cc1` (stereo not drawn) [Compound 7, 2-(3-(4-methoxybenzyl)-1-(pyrazin-2-yl)-1H-1,2,4-triazol-5-yl)morpholine], for which, in experiment [1], the “Inhibition Rate (%)” value was found to be 70.8%. Also, in the experiment on glioma cell line SH-SY5Y, the inhibition at 100 µM is 57.9% and the pIC50 was 4.11.
Consider `COc1ccc(Cc2nc(C3CNCCO3)n(C)n2)cc1` (stereo not drawn) [Compound 8, 2-(3-(4-methoxybenzyl)-1-methyl-1H-1,2,4-triazol-5-yl)morpholine], for which the “Inhibition Rate (%)” value in experiment [1] is recorded as 69.3%. In addition, in the experiment with glioma cell line SH-SY5Y, the inhibition at 100 µM is 59.5% and the pIC50 was 4.14.
In the case of `COc1ccc(Cc2nc(C3CN(Cc4ccccc4)CCO3)n(C3CCN(C)CC3)n2)cc1` (stereo not drawn) [Compound 9, 4-benzyl-2-(3-(4-methoxybenzyl)-1-(1-methylpiperidin-4-yl)-1H-1,2,4-triazol-5-yl)morpholine], the “Inhibition Rate (%)” value in experiment [1] is given as 72.3%. Further, in the experiment on glioma cell line SH-SY5Y, the inhibition at 100 µM is 58.5% and the pIC50 was 4.11.
Consider `COc1ccc(Cc2nc(C3CCCCO3)n(C3CCN(C)CC3)n2)cc1` (stereo not drawn) [Compound 10, 4-(3-(4-methoxybenzyl)-5-(tetrahydro-2H-pyran-2-yl)-1H-1,2,4-triazol-5-yl)-1-methylpiperidin], for which the “Inhibition Rate (%)” value in experiment [1] is 43.6%. Also, in the experiment on glioma cell line SH-SY5Y, the inhibition at 100 µM stood at 43.3% and the pIC50 was 3.91.
As for `COc1ccc(Cc2nc(CN)n(C3CCN(C)CC3)n2)cc1` [Compound 11, (3-(4-methoxybenzyl)-1-(1-methylpiperidin-4-yl)-1H-1,2,4-triazol-5-yl)methylamine], the “Inhibition Rate (%)” value in experiment [1] was determined as 36.8%. In addition, in the experiment on glioma cell line SH-SY5Y, the inhibition at 100 µM was 39.9% and the pIC50 was 3.88.
Take `COc1ccc(Cc2nc(C3CCCCO3)n(Cc3ccc(OC)cc3)n2)cc1` (stereo not drawn) [Compound 12, 1,3-bis(4-methoxybenzyl)-5-(tetrahydro-2H-pyran-2-yl)-1H-1,2,4-triazole]: in experiment [1], the “Inhibition Rate (%)” value is on record as 67.8%. For the same compound, in the experiment on glioma cell line SH-SY5Y, the inhibition at 100 µM is 60.1% and the pIC50 is 4.14.
Turning to `COc1ccc(Cn2nc(-c3ccccc3)nc2C2CNCCO2)cc1` (stereo not drawn) [Compound 13, 2-(1-(4-methoxybenzyl)-3-phenyl-1H-1,2,4-triazol-5-yl)morpholine], the “Inhibition Rate (%)” value in experiment [1] is given as 32.5%. Also, in the experiment with glioma cell line SH-SY5Y, the inhibition at 100 µM came out at 37.8% and the pIC50 was 3.86.
Regarding `CN1CCC(n2nc(Cc3ccccc3)nc2C2CNCCO2)CC1` (stereo not drawn) [Compound 14, 2-(3-benzyl-1-(1-methylpiperidin-4-yl)-1H-1,2,4-triazol-5-yl)morpholine], the “Inhibition Rate (%)” value in experiment [1] came out at 59.2%. In the experiment with glioma cell line SH-SY5Y, the inhibition at 100 µM is 53.2% and the pIC50 was 4.03.
On the same counts, the results for `CN1CCC(n2nc(-c3ccccc3)nc2C2CNCCO2)CC1` (stereo not drawn) [Compound 15, 2-(1-(1-methylpiperidin-4-yl)-3-phenyl-1H-1,2,4-triazol-5-yl)morpholine] are 53.9%, 52.3% and 4.02.
In the case of `Cc1ccc(-c2nc(C3CNCCO3)n(C3CCN(C)CC3)n2)cc1` (stereo not drawn) [Compound 16, 2-(1-(1-methylpiperidin-4-yl)-3-(p-methylphenyl)-1H-1,2,4-triazol-5-yl)morpholine], in experiment [1], the “Inhibition Rate (%)” value is 54.8%. Moreover, in the experiment on glioma cell line SH-SY5Y, the inhibition at 100 µM was determined as 52.8% and the pIC50 is 4.03.
For the compound `Cc1cccc(-c2nc(C3CNCCO3)n(C3CCN(C)CC3)n2)c1` (stereo not drawn) [Compound 17, 2-(1-(1-methylpiperidin-4-yl)-3-(m-methylphenyl)-1H-1,2,4-triazol-5-yl)morpholine], in experiment [1], the “Inhibition Rate (%)” value worked out at 58.3%. In addition, in the experiment with glioma cell line SH-SY5Y, the inhibition at 100 µM worked out at 53.7% and the pIC50 was 4.04.
Take `COc1ccc(Cc2nc(C3CCCCC3)n(C3CCN(C)CC3)n2)cc1` [Compound 18, 4-(5-cyclohexyl-3-(4-methoxybenzyl)-1H-1,2,4-triazol-5-yl)-1-methylpiperidin]: the “Inhibition Rate (%)” value in experiment [1] came to 43.8%. Moreover, in the experiment with glioma cell line SH-SY5Y, the inhibition at 100 µM was determined as 41.9% and the pIC50 was 3.90.
On the same counts, the results for `COc1ccc(Cc2nc(C(C)(C)C)n(C3CCN(C)CC3)n2)cc1` [Compound 19] are 45.2%, 44.8% and 3.93.
Consider `COc1ccc(Cc2nc(C3CCCCC3)n(Cc3ccc(OC)cc3)n2)cc1` [Compound 21, 5-cyclohexyl-1,3-dis(4-methoxybenzyl)-1H-1,2,4-triazole], for which, in experiment [1], the “Inhibition Rate (%)” value is 43.7%. In the experiment on glioma cell line SH-SY5Y, the inhibition at 100 µM stood at 46.2% and the pIC50 is 3.95.

What is called pIC50 is the negative decadic logarithm of the IC50, by convention in mol/L. The low end stands for a high IC50, the high end for a low IC50.

The values are drawn from patent publication US12281107B2, “SET8 lysine methyltransferase inhibitor and preparation method and application thereof” (HAINAN YILING MEDICAL INDUSTRY & DEVELOPMENT Co., Ltd., priority 2019, dated 2025).
